Data as given in US9328386B2, “Markers for susceptibility to an inhibitor of an Src-family kinase” (Evotec (München) GmbH, priority 2011, dated 2016).

How the values were obtained:
Calu6 NSCLC cell line = experiment: Cellular growth inhibition (CellTiter Glo viability assay); assay type: cell-based; conditions: Homo sapiens
H1395 NSCLC cell line = experiment: as above; assay type: cell-based; conditions: Homo sapiens
H157 NSCLC cell line = experiment: as above; assay type: cell-based; conditions: Homo sapiens
H1648 NSCLC cell line = experiment: as above; assay type: cell-based; conditions: Homo sapiens
H1666 NSCLC cell line = experiment: as above; assay type: cell-based; conditions: Homo sapiens
H2009 NSCLC cell line = experiment: as above; assay type: cell-based; conditions: Homo sapiens
H2030 NSCLC cell line = experiment: as above; assay type: cell-based; conditions: Homo sapiens
H2077 NSCLC cell line = experiment: as above; assay type: cell-based; conditions: Homo sapiens, H2077
H2172 NSCLC cell line = experiment: as above; assay type: cell-based; conditions: Homo sapiens
H460 NSCLC cell line = experiment: as above; assay type: cell-based; conditions: Homo sapiens
H520 NSCLC cell line = experiment: as above; assay type: cell-based; conditions: Homo sapiens
LouNH91 NSCLC cell line = experiment: as above; assay type: cell-based; conditions: Homo sapiens, LouNH91
HCC366 NSCLC cell line = experiment: as above; assay type: cell-based; conditions: Homo sapiens
HCC4006 NSCLC cell line = experiment: as above; assay type: cell-based; conditions: Homo sapiens
HCC78 NSCLC cell line = experiment: as above; assay type: cell-based; conditions: Homo sapiens
H322M NSCLC cell line = experiment: as above; assay type: cell-based; conditions: Homo sapiens, NCI-H322M
HCC2279 NSCLC cell line = experiment: as above; assay type: cell-based; conditions: Homo sapiens, HCC2279
PC9 NSCLC cell line = experiment: as above; assay type: cell-based; conditions: Homo sapiens, PC9
MAP4K4 = target: T1, MAP4K4 (Homo sapiens, UniProt O95819); experiment: KinAffinity target profiling; assay type: binding; conditions: PC9 cell extract, read-out: KD_free
T1 construct: endogenous in cells; host or cells: PC9 cells (lysate)
Procedure: For in vitro association experiments 4×10^8 PC9 cells were lysed in buffer containing 20 mM HEPES pH 7.5, 400 mM NaCl. 0.25% Triton X-100, 1 mM DTT, 1.5 mM MgCl2, 0.5 mM ZnCl2, 0.5 mM EDTA, 0.5 mM EGTA, 1600 U/ml Benzonase plus additives (10 μg/ml aprotinin, 10 μg/ml leupeptin, 1 mM PMSF, 1 mM Na3VO4, 10 mM NaF). After centrifugation the supernatant was adjusted to 1 M NaCl, filtered through a 0.45 μm celluloseacetate filter and subjected to KinAffinity™ beads representing several different broad-spectrum kinase inhibitors immobilized on Sepharose beads. For each in vitro association experiment 750 μl cell extract (4 mg/ml) were incubated with 30 μl KinAffinity™ beads for 2.5 h at 4° C. […] Alternatively, the inhibitor (3 nM, 30 nM, 100 nM, 300 nM, 3 μM) and KinAffinity™ beads were added simultaneously to the cell extract. […] The extracted peptides were derivatized for quantitative mass spectrometry using the TMT 6-plex reagent according to the manufactures instructions and were subsequently combined for mass spectrometric analysis.
Mass spectrometric analysis of the labeled and combined peptide fractions was carried out by on-line nanoLC-MS/MS. The samples were loaded directly by an Agilent 1200 nanoflow system (Agilent Technologies) on a 15 cm fused silica emitter (New Objective) packed in-house with reversed phase material (Reprusil-Pur C18-AQ, 3 μm, Dr. Maisch GmbH) at a flow of […]. The bound peptides were eluted by a gradient from 2% to 40% solvent B (80% ACN, 0.5% HOAc) at a flow of […] and sprayed directly into an LTQ-Orbitrap XL mass spectrometer (Thermo Fischer Scientific) at a spray voltage of 2 kV applying a nano electrospray ion source (ProxeonBiosystems). The mass spectrometer was operated in the positive ion mode and a data dependent switch between MS and MS/MS acquisition. To improve mass accuracy in the MS mode the lock-mass option was enabled. Full scans were acquired in the orbitrap at a resolution R=60 000 and a target value of 1 000 000 charges. […] The resulting fragmentation spectra were also recorded in the linear ion trap.
Regarding the search parameters, the minimal peptide length was set to 6 amino acids, trypsin was selected as proteolytic enzyme and maximally 2 missed cleavage sites were allowed. […] The maximal mass deviation of precursor and fragment masses was set to 7 ppm and 0.5 Da. A false discovery rate (FDR) of 0.01 was selected for proteins and peptides and a posterior error propability (PEP) below or equal to 0.1 for each MS/MS spectrum was required. The intensities of the TMT reporter ions were read from the msm files. For each protein group identified by MaxQuant the MS/MS spectra corresponding to razor peptides of this protein group were collected, and the reporter ion intensities were averaged over all MS/MS spectra. Finally the sigmoid model y=1−a/(1+(x/b)^c) was fitted to the binding values for each protein group. Similarly the model y=a/(1+(x/b)^c) was fitted to the competition values.

[1] = read-out: Sensitivity Saracatinib
[2] = 96 hours of treatment, read-out: GI50

T1 sequence (O95819 whole entry): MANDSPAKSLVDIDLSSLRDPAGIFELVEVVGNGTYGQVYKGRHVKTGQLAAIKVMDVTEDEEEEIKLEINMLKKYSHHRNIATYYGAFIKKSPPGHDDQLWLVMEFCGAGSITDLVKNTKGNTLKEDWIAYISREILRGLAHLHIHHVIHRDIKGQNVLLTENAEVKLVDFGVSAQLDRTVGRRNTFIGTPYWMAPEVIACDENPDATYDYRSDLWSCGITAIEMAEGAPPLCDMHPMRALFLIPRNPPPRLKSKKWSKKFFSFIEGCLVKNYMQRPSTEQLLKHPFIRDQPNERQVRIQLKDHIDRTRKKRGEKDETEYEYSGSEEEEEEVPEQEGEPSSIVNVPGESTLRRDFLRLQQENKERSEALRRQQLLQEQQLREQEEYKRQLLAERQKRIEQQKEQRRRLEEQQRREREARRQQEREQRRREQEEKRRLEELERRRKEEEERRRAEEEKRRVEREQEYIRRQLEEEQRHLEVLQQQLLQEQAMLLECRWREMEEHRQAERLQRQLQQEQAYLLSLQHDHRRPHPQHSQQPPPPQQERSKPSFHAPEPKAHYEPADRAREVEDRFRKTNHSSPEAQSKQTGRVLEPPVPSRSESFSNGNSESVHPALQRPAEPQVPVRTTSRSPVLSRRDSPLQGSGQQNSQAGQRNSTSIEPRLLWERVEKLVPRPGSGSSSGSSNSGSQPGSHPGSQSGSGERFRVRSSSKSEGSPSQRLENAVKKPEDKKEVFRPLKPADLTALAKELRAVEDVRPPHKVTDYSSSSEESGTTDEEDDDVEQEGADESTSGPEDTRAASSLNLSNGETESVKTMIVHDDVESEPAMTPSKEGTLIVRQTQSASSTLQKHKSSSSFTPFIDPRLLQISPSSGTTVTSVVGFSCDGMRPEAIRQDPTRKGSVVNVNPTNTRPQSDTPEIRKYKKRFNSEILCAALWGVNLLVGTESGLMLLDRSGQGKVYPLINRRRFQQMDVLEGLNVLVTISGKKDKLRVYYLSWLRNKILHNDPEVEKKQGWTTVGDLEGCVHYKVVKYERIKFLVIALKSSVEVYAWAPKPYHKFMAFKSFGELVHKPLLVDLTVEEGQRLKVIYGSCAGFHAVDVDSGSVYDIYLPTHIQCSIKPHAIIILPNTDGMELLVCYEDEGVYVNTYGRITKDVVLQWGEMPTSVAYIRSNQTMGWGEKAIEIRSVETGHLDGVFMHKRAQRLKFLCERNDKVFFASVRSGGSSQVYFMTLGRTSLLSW

Q: How did the IC50 (Calu6 NSCLC cell line; Calu-6, read-out: Sensitivity Saracatinib) turn out when CN1CCN(CCOc2cc(OC3CCOCC3)c3c(Nc4c(Cl)ccc5c4OCO5)ncnc3c2)CC1 [saracatinib, N-(5-Chloro-1,3-benzodioxol-4-yl)-7-[2-(4-methyl-1-piperazinyl)ethoxy]-5-[(tetrahydro-2H-pyran-4-yl)oxy]-4-quinazolinamine] was run?
A: Its IC50 is greater than 3.5 µM.

Q: And the GI50 (Calu6 NSCLC cell line; Calu-6, 96 hours of treatment, read-out: GI50)?
A: The GI50 was 30 µM.

Q: What about the IC50 (H1395 NSCLC cell line; NCI-H1395, read-out: Sensitivity Saracatinib) of the same molecule?
A: Its IC50 is greater than 3.5 µM.

Q: And the GI50 (H1395 NSCLC cell line; NCI-H1395, H1395, 96 hours of treatment, read-out: GI50)?
A: Its GI50 is 31.7 µM.

Q: What about the IC50 (H157 NSCLC cell line; NCI-H157, read-out: Sensitivity Saracatinib) of the same molecule?
A: Its IC50 is greater than 3.5 µM.

Q: And the GI50 (H157 NSCLC cell line; NCI-H157, H157, 96 hours of treatment, read-out: GI50)?
A: Its GI50 is 13.9 µM.

Q: And the IC50 (H1648 NSCLC cell line; NCI-H1648, read-out: Sensitivity Saracatinib)?
A: The IC50 was less than 3.5 µM.

Q: What about the GI50 (H1648 NSCLC cell line; NCI-H1648, H1648, 96 hours of treatment, read-out: GI50) of the same molecule?
A: The GI50 was 1.51 µM.

Q: What about the IC50 (H1666 NSCLC cell line; NCI-H1666, read-out: Sensitivity Saracatinib) of the same molecule?
A: The IC50 was less than 3.5 µM.

Q: And the GI50 (H1666 NSCLC cell line; NCI-H1666, H1666, 96 hours of treatment, read-out: GI50)?
A: Its GI50 is 2.2 µM.

Q: What about the IC50 (H2009 NSCLC cell line; NCI-H2009, read-out: Sensitivity Saracatinib) of the same molecule?
A: The IC50 was greater than 3.5 µM.

Q: And the GI50 (H2009 NSCLC cell line; NCI-H2009, H2009, 96 hours of treatment, read-out: GI50)?
A: The GI50 was 4.31 µM.

Q: And the IC50 (H2030 NSCLC cell line; NCI-H2030, read-out: Sensitivity Saracatinib)?
A: Its IC50 is less than 3.5 µM.

Q: And the GI50 (H2030 NSCLC cell line; NCI-H2030, H2030, 96 hours of treatment, read-out: GI50)?
A: The GI50 was 0.443 µM.

Q: What about the IC50 (H2077 NSCLC cell line; [1]) of the same molecule?
A: Its IC50 is greater than 3.5 µM.

Q: What about the GI50 (H2077 NSCLC cell line; [2]) of the same molecule?
A: The GI50 was 14.8 µM.

Q: What about the IC50 (H2172 NSCLC cell line; NCI-H2172, read-out: Sensitivity Saracatinib) of the same molecule?
A: Its IC50 is greater than 3.5 µM.

Q: What about the GI50 (H2172 NSCLC cell line; NCI-H2172, H2172, 96 hours of treatment, read-out: GI50) of the same molecule?
A: The GI50 was 28.5 µM.

Q: What about the IC50 (H460 NSCLC cell line; NCI-H460, read-out: Sensitivity Saracatinib) of the same molecule?
A: Its IC50 is greater than 3.5 µM.

Q: And the GI50 (H460 NSCLC cell line; NCI-H460, H460, 96 hours of treatment, read-out: GI50)?
A: The GI50 was 12.1 µM.

Q: What about the IC50 (H520 NSCLC cell line; NCI-H520, read-out: Sensitivity Saracatinib) of the same molecule?
A: The IC50 was greater than 3.5 µM.

Q: What about the GI50 (H520 NSCLC cell line; NCI-H520, H520, 96 hours of treatment, read-out: GI50) of the same molecule?
A: The GI50 was 4.56 µM.

Q: And the IC50 (LouNH91 NSCLC cell line; LOU-NH91, read-out: Sensitivity Saracatinib)?
A: The IC50 was less than 3.5 µM.

Q: And the GI50 (LouNH91 NSCLC cell line; LOU-NH91, 96 hours of treatment, read-out: GI50)?
A: Its GI50 is 1.18 µM.

Q: What about the IC50 (HCC366 NSCLC cell line; HCC366, read-out: Sensitivity Saracatinib) of the same molecule?
A: The IC50 was less than 3.5 µM.

Q: What about the GI50 (HCC366 NSCLC cell line; HCC366, 96 hours of treatment, read-out: GI50) of the same molecule?
A: The GI50 was 1.24 µM.

Q: And the IC50 (HCC4006 NSCLC cell line; HCC4006, read-out: Sensitivity Saracatinib)?
A: Its IC50 is less than 3.5 µM.

Q: What about the GI50 (HCC4006 NSCLC cell line; HCC4006, 96 hours of treatment, read-out: GI50) of the same molecule?
A: Its GI50 is 0.132 µM.

Q: What about the IC50 (HCC78 NSCLC cell line; HCC78, read-out: Sensitivity Saracatinib) of the same molecule?
A: The IC50 was less than 3.5 µM.

Q: What about the GI50 (HCC78 NSCLC cell line; HCC78, 96 hours of treatment, read-out: GI50) of the same molecule?
A: The GI50 was 0.267 µM.

Q: What about the IC50 (H322M NSCLC cell line; [1]) of the same molecule?
A: Its IC50 is less than 3.5 µM.

Q: What about the GI50 (H322M NSCLC cell line; H322M, 96 hours of treatment, read-out: GI50) of the same molecule?
A: Its GI50 is 0.876 µM.

Q: What about the IC50 (HCC2279 NSCLC cell line; [1]) of the same molecule?
A: The IC50 was less than 3.5 µM.

Q: And the GI50 (HCC2279 NSCLC cell line; [2])?
A: The GI50 was 0.66 µM.

Q: And the IC50 (PC9 NSCLC cell line; PC-9, read-out: Sensitivity Saracatinib)?
A: Its IC50 is less than 3.5 µM.

Q: And the GI50 (PC9 NSCLC cell line; [2])?
A: The GI50 was 0.147 µM.

Q: And the Kd (MAP4K4)?
A: Its Kd is 5.89 µM.
